Results as given in paper PMC8550792, “Evolution of kinase polypharmacology across HSP90 drug discovery” (Cell Chemical Biology, 2021).
Read-outs that look alike come from different tables or passages of the source.

Tests used:
Assay in all cases: biochemical
Format in all cases: biochemical
382 unique human kinases [1] = target: T1, 382 unique human kinases (Homo sapiens, UniProt Q13163); settings: MEK5, 10 uM; for remaining activity at 10 µM: read-out: % Enzyme Activity (relative to DMSO controls)
T1 construct: purchased Reaction Biology (HotSpot contract assay)
T1 sequence (Q13163 1-448): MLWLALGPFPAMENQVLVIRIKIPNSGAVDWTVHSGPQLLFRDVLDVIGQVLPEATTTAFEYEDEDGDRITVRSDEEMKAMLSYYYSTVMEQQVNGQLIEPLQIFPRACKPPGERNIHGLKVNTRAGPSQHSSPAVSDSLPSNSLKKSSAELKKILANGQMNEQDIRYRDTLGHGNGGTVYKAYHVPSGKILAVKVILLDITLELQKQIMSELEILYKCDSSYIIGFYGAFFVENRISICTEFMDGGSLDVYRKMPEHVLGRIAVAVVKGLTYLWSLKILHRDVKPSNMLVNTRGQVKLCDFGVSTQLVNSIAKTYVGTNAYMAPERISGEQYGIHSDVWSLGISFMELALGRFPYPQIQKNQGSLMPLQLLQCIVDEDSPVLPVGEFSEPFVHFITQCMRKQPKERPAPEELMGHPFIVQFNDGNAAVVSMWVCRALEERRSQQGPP

382 unique human kinases [2] = target: T2, 382 unique human kinases (Homo sapiens, UniProt Q13233); settings: kinase MEKK1, compound 10 uM; for remaining activity at 10 µM: read-out: % Enzyme Activity (relative to DMSO controls)
T2 construct: purchased Reaction Biology (HotSpot contract assay)

382 unique human kinases [3] = target: T3, 382 unique human kinases (Homo sapiens, UniProt Q04759); settings: PKCtheta, compound at 10 uM, duplicate values; for remaining activity at 10 µM: read-out: % Enzyme Activity (relative to DMSO controls)
T3 construct: purchased Reaction Biology (HotSpot contract assay)

382 unique human kinases [4] = target: T4, 382 unique human kinases (Homo sapiens, UniProt Q9HBY8); settings: kinase SGK2, compound 10 uM; for remaining activity at 10 µM: read-out: % Enzyme Activity (relative to DMSO controls)
T4 construct: purchased Reaction Biology (HotSpot contract assay)
T4 sequence (Q9HBY8 1-367): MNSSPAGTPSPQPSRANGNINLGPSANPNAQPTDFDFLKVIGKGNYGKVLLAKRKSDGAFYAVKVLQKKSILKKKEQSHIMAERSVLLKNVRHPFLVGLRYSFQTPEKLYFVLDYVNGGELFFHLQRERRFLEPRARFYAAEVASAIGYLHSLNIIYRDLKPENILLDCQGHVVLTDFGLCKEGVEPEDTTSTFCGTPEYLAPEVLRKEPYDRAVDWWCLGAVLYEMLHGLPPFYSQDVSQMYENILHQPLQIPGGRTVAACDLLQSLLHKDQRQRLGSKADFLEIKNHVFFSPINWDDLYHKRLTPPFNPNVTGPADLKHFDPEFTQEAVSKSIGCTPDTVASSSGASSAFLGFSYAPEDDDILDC

382 unique human kinases [5] = target: T5, 382 unique human kinases (Homo sapiens, UniProt P08581, Y1230D); settings: c-MET (Y1230D), compound at 10 uM, duplicate values; for remaining activity at 10 µM: read-out: % Enzyme Activity (relative to DMSO controls)
T5 construct: purchased Reaction Biology (HotSpot contract assay)

382 unique human kinases [6] = target: T6, 382 unique human kinases (Homo sapiens, UniProt Q5VT25); settings: kinase MRCKa/CDC42BPA, compound 10 uM; for remaining activity at 10 µM: read-out: % Enzyme Activity (relative to DMSO controls)
T6 construct: purchased Reaction Biology (HotSpot contract assay)

382 unique human kinases [7] = target: T7, 382 unique human kinases (Homo sapiens, UniProt P49674); settings: CK1epsilon, 10 uM; for remaining activity at 10 µM: read-out: % Enzyme Activity (relative to DMSO controls)
T7 construct: purchased Reaction Biology (HotSpot contract assay)

382 unique human kinases [8] = target: T8, 382 unique human kinases (Homo sapiens, UniProt P32298); settings: kinase GRK4, compound 10 uM; for remaining activity at 10 µM: read-out: % Enzyme Activity (relative to DMSO controls)
T8 construct: purchased Reaction Biology (HotSpot contract assay)

382 unique human kinases [9] = target: T9, 382 unique human kinases (Homo sapiens, UniProt Q9BZL6); settings: kinase PKD2/PRKD2, compound 10 uM; for remaining activity at 10 µM: read-out: % Enzyme Activity (relative to DMSO controls)
T9 construct: purchased Reaction Biology (HotSpot contract assay)
T9 sequence (Q9BZL6 1-878): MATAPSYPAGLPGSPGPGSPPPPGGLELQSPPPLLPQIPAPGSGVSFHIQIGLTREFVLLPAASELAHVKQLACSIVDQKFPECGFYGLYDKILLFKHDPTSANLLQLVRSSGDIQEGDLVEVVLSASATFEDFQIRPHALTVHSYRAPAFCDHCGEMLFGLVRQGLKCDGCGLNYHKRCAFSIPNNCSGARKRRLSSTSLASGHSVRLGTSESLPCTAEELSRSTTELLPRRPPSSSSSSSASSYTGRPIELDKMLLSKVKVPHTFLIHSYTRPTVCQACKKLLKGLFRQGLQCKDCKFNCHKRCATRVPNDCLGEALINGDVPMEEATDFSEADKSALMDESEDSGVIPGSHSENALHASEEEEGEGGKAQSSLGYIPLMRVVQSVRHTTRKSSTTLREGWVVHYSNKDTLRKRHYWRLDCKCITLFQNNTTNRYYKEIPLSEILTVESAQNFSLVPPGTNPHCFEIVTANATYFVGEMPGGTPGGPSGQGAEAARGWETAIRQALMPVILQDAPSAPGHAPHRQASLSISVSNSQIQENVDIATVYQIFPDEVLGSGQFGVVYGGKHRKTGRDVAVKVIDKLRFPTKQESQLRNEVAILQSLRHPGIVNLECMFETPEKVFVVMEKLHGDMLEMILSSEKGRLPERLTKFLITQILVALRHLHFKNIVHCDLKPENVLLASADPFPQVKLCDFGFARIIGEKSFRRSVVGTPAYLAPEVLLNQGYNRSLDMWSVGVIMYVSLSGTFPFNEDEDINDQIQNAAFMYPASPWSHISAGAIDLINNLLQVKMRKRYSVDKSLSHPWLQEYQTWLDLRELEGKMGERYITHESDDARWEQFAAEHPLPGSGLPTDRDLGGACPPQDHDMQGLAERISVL

382 unique human kinases [10] = target: T10, 382 unique human kinases (Homo sapiens, UniProt Q15208); settings: STK38/NDR1, 10 uM; for remaining activity at 10 µM: read-out: % Enzyme Activity (relative to DMSO controls)
T10 construct: purchased Reaction Biology (HotSpot contract assay)

382 unique human kinases [11] = target: T11, 382 unique human kinases (Homo sapiens, UniProt Q9HC98); settings: NEK6, 10 uM; for remaining activity at 10 µM: read-out: % Enzyme Activity (relative to DMSO controls)
T11 construct: purchased Reaction Biology (HotSpot contract assay)

382 unique human kinases [12] = target: T12, 382 unique human kinases (Homo sapiens, UniProt P49840); settings: GSK3a, [ATP] 30 µM, compound 10 uM; for remaining activity at 10 µM: read-out: % Enzyme Activity (relative to DMSO controls)
T12 construct: purchased Reaction Biology (HotSpot contract assay)

382 unique human kinases [13] = target: T13, 382 unique human kinases (Homo sapiens, UniProt P07949, M918T); settings: RET (M918T), 10 uM; for remaining activity at 10 µM: read-out: % Enzyme Activity (relative to DMSO controls)
T13 construct: purchased Reaction Biology (HotSpot contract assay)

382 unique human kinases [14] = target: T14, 382 unique human kinases (Homo sapiens, UniProt P07949, Y791F); settings: [ATP] 15 µM, compound 10 uM, read-out: % Enzyme Activity (relative to DMSO controls)
T14 construct: purchased Reaction Biology (HotSpot contract assay)
T14 sequence (P07949 29-1114 Y791F): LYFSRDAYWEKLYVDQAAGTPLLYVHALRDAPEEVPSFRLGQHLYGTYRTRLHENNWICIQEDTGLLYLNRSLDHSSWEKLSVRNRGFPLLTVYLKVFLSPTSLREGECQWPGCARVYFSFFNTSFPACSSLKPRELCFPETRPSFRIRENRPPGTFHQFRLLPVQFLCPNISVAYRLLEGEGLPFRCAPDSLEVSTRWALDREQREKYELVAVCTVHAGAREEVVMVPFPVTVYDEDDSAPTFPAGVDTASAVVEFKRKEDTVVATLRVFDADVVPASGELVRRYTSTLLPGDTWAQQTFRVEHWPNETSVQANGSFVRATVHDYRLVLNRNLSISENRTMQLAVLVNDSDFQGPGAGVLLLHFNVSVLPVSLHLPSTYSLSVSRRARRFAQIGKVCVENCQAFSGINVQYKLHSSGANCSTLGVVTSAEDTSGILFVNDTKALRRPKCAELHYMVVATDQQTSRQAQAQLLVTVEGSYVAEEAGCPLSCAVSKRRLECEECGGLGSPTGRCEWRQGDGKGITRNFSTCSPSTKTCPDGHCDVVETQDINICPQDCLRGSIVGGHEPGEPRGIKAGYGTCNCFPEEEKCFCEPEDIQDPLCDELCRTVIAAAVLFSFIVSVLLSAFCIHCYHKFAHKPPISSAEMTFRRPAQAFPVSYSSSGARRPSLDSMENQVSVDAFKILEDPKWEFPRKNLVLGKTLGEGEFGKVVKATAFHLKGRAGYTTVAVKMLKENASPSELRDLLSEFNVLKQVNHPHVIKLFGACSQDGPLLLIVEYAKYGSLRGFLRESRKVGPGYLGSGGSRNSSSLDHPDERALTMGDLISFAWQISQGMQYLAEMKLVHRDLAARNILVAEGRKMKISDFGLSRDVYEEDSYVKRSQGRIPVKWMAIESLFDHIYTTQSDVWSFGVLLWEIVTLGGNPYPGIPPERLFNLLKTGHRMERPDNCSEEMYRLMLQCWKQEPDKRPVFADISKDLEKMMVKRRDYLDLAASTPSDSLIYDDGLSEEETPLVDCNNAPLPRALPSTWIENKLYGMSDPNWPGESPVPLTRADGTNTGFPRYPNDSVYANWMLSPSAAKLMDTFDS

T13 sequence (P07949 29-1114 M918T): as the sequence (P07949 29-1114 Y791F) above, with F763Y, M890T counted along it
T8 sequence (P32298 whole entry): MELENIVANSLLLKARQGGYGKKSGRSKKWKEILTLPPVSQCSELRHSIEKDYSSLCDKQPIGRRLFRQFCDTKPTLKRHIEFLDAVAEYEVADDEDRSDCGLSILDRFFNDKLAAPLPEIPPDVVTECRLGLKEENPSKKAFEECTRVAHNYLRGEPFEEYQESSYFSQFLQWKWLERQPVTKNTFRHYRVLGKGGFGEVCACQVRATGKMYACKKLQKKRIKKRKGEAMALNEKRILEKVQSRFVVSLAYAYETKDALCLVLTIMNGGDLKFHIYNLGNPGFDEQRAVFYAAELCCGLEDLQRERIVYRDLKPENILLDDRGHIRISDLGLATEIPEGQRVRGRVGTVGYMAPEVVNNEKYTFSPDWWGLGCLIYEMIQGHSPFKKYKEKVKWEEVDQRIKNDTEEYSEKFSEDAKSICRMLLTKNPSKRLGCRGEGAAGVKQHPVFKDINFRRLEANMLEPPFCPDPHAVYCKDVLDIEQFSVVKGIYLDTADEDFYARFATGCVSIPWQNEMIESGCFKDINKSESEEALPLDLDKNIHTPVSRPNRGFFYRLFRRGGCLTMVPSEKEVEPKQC
T2 sequence (Q13233 whole entry): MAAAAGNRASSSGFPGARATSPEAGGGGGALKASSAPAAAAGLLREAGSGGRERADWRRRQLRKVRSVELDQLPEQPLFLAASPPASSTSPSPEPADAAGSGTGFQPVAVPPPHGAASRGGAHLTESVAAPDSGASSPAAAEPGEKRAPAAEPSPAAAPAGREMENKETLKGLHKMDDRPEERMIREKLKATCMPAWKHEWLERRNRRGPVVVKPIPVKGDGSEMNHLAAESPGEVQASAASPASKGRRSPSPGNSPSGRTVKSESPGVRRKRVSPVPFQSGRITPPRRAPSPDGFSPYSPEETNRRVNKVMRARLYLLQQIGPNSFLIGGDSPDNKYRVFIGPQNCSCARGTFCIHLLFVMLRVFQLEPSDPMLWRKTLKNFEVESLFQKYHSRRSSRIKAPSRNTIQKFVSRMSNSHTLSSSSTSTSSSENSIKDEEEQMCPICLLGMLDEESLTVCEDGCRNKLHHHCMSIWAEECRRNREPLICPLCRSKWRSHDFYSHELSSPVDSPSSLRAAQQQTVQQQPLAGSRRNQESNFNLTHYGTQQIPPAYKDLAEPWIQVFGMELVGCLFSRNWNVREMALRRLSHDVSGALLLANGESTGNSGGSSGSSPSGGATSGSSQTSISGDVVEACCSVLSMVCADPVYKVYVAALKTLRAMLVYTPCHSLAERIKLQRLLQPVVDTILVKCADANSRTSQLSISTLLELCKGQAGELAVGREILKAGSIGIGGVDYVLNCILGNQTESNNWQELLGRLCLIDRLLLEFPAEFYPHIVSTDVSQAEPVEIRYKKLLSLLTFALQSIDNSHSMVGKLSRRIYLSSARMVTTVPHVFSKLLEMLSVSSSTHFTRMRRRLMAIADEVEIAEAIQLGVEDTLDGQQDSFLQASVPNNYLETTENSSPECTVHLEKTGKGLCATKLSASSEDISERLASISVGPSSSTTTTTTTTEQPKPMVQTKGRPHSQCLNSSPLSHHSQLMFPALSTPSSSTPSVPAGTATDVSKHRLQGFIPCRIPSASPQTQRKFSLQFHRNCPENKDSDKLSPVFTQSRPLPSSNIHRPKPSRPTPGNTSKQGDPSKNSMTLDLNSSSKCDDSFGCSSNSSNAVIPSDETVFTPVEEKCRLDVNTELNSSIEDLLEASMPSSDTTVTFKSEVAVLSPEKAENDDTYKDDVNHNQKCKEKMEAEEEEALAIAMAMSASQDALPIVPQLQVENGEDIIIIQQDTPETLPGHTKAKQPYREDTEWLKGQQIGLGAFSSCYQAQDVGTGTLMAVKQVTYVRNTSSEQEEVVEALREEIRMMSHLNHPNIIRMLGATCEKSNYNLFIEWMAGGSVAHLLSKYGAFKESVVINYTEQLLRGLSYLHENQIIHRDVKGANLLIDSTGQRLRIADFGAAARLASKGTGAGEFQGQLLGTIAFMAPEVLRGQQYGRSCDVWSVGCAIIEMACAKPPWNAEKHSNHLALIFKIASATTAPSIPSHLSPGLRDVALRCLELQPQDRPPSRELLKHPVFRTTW
T7 sequence (P49674 whole entry): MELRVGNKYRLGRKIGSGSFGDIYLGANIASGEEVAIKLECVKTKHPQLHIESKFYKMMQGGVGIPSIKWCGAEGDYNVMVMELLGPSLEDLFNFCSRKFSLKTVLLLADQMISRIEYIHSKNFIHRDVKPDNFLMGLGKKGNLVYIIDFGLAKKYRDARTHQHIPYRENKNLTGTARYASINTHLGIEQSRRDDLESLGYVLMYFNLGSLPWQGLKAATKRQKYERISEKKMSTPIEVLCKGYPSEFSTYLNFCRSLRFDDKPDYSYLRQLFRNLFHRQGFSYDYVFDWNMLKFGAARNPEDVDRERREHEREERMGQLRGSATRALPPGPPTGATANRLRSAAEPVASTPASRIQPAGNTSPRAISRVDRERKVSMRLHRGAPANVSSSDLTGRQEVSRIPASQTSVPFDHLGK
T10 sequence (Q15208 whole entry): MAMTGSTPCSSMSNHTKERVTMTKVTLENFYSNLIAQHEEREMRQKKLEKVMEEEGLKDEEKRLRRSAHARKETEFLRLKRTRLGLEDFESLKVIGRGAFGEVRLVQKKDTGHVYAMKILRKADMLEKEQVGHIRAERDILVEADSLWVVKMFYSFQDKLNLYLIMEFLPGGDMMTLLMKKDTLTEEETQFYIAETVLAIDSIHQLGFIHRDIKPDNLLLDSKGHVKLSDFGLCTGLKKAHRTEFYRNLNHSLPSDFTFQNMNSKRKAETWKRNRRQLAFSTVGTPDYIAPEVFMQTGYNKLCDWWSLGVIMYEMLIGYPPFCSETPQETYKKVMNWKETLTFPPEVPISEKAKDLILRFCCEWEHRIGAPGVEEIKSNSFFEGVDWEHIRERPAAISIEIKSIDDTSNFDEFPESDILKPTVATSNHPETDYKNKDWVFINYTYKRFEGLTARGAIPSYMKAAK
T3 sequence (Q04759 whole entry): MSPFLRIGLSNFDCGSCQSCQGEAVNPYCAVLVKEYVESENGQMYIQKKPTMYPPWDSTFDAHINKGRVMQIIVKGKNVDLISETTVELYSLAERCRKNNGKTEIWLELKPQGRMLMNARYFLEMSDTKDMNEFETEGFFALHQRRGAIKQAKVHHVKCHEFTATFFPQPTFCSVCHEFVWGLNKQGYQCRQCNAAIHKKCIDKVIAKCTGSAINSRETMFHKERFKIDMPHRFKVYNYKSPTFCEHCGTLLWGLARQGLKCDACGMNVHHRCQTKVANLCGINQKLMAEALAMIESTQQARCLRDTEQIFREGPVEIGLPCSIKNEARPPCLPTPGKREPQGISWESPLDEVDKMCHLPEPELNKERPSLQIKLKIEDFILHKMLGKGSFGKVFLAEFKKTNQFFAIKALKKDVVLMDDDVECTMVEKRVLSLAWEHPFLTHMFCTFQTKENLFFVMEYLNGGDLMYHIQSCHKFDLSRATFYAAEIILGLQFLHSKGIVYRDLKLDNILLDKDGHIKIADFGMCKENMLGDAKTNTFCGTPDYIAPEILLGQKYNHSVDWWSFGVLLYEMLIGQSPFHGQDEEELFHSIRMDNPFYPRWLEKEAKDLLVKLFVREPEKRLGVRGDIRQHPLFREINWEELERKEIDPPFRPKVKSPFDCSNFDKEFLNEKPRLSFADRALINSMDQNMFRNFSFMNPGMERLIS

Row | Compound | remaining activity at 10 µM (382 unique human kinases [1]) [%] | remaining activity at 10 µM (382 unique human kinases [2]) [%] | remaining activity at 10 µM (382 unique human kinases [3]) [%] | remaining activity at 10 µM (382 unique human kinases [4]) [%] | remaining activity at 10 µM (382 unique human kinases [5]) [%] | remaining activity at 10 µM (382 unique human kinases [6]) [%] | remaining activity at 10 µM (382 unique human kinases [7]) [%] | remaining activity at 10 µM (382 unique human kinases [8]) [%] | remaining activity at 10 µM (382 unique human kinases [9]) [%] | remaining activity at 10 µM (382 unique human kinases [10]) [%] | remaining activity at 10 µM (382 unique human kinases [11]) [%] | remaining activity at 10 µM (382 unique human kinases [12]) [%] | remaining activity at 10 µM (382 unique human kinases [13]) [%] | remaining activity at 10 µM (382 unique human kinases [14]; RET (Y791F)) [%] | other results
1 | CC(C)c1cc(-c2n[nH]c(=O)n2-c2ccc3c(ccn3C)c2)c(O)cc1O [Ganetespib (STA9090)] | 65.3 | 98.3 | 148 | 85.5 | 109 | 87.6 | 73.4 | 90 | 87 | – | – | – | – | – | –
2 | CC(C)c1cc(-c2n[nH]c(=O)n2-c2ccc3c(ccn3C)c2)c(O)cc1O [Ganetespib] | – | – | – | – | – | – | – | – | – | 95.7 | 107 | 21.9 | 97.7 | 60.9 | –
3 | CCNC(=O)c1noc(-c2cc(C(C)C)c(O)cc2O)c1-c1ccc(CN2CCOCC2)cc1 [Luminespib (AUY-922)] | 100 | 85.5 | 102 | 110 | 110 | 99.7 | 105 | 97.7 | 99.3 | – | – | – | – | – | % Enzyme Activity (relative to DMSO controls) (382 unique human kinases [1]): 99.65%; % Enzyme Activity (relative to DMSO controls) (382 unique human kinases [2]): 83.59%; % Enzyme Activity (relative to DMSO controls) (382 unique human kinases [3]): 101.70%; % Enzyme Activity (relative to DMSO controls) (382 unique human kinases [4]): 108.05%; % Enzyme Activity (relative to DMSO controls) (382 unique human kinases [5]): 109.18%; % Enzyme Activity (relative to DMSO controls) (382 unique human kinases [6]): 98.43%; % Enzyme Activity (relative to DMSO controls) (382 unique human kinases [7]): 103.86%; % Enzyme Activity (relative to DMSO controls) (382 unique human kinases [8]): 97.37%; % Enzyme Activity (relative to DMSO controls) (382 unique human kinases [9]): 97.40%
4 | CCNC(=O)c1noc(-c2cc(C(C)C)c(O)cc2O)c1-c1ccc(CN2CCOCC2)cc1 [Luminespib] | – | – | – | – | – | – | – | – | – | 99 | 95.4 | 96.4 | 97.5 | 100 | % Enzyme Activity (relative to DMSO controls) (382 unique human kinases [10]): 98.10%; % Enzyme Activity (relative to DMSO controls) (382 unique human kinases [11]): 94.17%; % Enzyme Activity (relative to DMSO controls) (382 unique human kinases [12]): 93.84%; % Enzyme Activity (relative to DMSO controls) (382 unique human kinases [13]): 96.83%; remaining activity at 10 µM (382 unique human kinases [14]; […]): 99.9%
